Assay [1] relates to non-small cell lung carcinoma (A549) cells. Put plainly: MTT proliferation assay, NSCLC. It is filed as cell-based, Human. As to conditions: Homo sapiens, Tumor Cell NSCLC (A549), 120 hours, read-out: Anti-proliferative IC-50. On the technique in general: Formazan colour is commonly taken as a measure of viable cells.
Assay [2] has as its system pancreatic carcinoma (MIA PaCa-2) cells. Put plainly: MTT proliferation assay, pancreatic. The class given is cell-based, Human. As to conditions: Homo sapiens, Tumor Cell Pancreatic (MIA PaCa-2), 120 hours, read-out: Anti-proliferative IC-50.
Assay [3] deals with glioblastoma (U-87 MG) cells. Description: MTT proliferation assay, glioblastoma. It is filed as cell-based. The settings on record: Homo sapiens, Tumor Cell Glioblastoma (U-87 MG), 120 hours, read-out: Anti-proliferative IC-50.
The test system of assay [4] is HSP90:CDC37. Description: Protein-fragment complementation assay Hsp90:CDC37. The class given is cell-based, human. An excerpt:
(§1) To construct dynamic assays for protein-protein complexes, we used a protein-fragment complementation assay strategy (PCAs) in intact human cells. (A variety of other suitable assays, and reporter options, are described in detail below.) The principle of PCA is that complementary polypeptide fragments (F[1] and F[2]) of a reporter protein or enzyme will fold into an active form only if fused to two proteins which interact and bring the complementary fragments of the reporter protein into proximity. Reconstitution of the fragments of the reporter protein generates a fluorescent signal that can be quantified in intact cells, and the amount of the signal is proportional to the amount of the protein-protein complex used in constructing the assay. Given a suitable reporter type, the subcellular location of the complex can also be measured.
(§2) Reporter fragments for PCA were generated by oligonucleotide synthesis (Blue Heron Biotechnology, Bothell, Wash.), starting with the sequence of yellow fluorescent protein (YFP). First, oligonucleotides coding for polypeptide fragments YFP[1]and YFP[2] […] Next, PCR mutagenesis was used to generate the mutant fragments IFP[1] and IFP[2]. The IFP[1] fragment corresponds to YFP[1]-(F46L, F64L, M153T) and the IFP[2] fragment corresponds to YFP[2]-(V163A, S175G). […]

For assay [5], the system named is MAX:MYC. Description: Protein-fragment complementation assay MAX:MYC. It is filed as cell-based, human. The settings on record: hit in MYC/MAX assay; drugs screened at 10 micromolar.
Description: as §1, §2

Turning to `O=C(Nc1ccc([N+](=O)[O-])cc1Cl)c1cc(Cl)ccc1O` [Niclosamide], the values for the IC50 in assay [1], in assay [2] and in assay [3] were 0.66 µM, 0.59 µM and 0.81 µM, respectively. In assay [4] (FIG. 3D), the “level of HSP90:CDC37 complexes (intensity of the fluorescence)” value is “decrease in the level”. Also, the Assay activity entry was “HSP90/CDC37,” in assay [4] (hit in HSP90/CDC37 assay, drugs screened at 10 micromolar) and “MYC/MAX” in assay [5].

The values are drawn from patent US20060094059A1, “Methods for identifying new drug leads and new therapeutic uses for known drugs” (Odyssey Thera, Inc., priority 2004, published 2006).
